Experimental data: US12030876B2, “Aryl hydrocarbon receptor (AHR) agonists and uses thereof” (Ikena Oncology, Inc., priority 2019, dated 2024)

How the values were obtained:
AHR [1] = target: T1, AHR (Homo sapiens, UniProt P35869); experiment: DRE-Luciferase Reporter Assay, HepG2 (agonist); type: cell-based; conditions: HepG2, Table 2; read-out: DRE-Luc HepG2 - Agonist: Average EC50
T1 construct: endogenous in cells; host or cells: HepG2 (human), transfected with a DRE-luciferase reporter only
T1 sequence (P35869 11-848): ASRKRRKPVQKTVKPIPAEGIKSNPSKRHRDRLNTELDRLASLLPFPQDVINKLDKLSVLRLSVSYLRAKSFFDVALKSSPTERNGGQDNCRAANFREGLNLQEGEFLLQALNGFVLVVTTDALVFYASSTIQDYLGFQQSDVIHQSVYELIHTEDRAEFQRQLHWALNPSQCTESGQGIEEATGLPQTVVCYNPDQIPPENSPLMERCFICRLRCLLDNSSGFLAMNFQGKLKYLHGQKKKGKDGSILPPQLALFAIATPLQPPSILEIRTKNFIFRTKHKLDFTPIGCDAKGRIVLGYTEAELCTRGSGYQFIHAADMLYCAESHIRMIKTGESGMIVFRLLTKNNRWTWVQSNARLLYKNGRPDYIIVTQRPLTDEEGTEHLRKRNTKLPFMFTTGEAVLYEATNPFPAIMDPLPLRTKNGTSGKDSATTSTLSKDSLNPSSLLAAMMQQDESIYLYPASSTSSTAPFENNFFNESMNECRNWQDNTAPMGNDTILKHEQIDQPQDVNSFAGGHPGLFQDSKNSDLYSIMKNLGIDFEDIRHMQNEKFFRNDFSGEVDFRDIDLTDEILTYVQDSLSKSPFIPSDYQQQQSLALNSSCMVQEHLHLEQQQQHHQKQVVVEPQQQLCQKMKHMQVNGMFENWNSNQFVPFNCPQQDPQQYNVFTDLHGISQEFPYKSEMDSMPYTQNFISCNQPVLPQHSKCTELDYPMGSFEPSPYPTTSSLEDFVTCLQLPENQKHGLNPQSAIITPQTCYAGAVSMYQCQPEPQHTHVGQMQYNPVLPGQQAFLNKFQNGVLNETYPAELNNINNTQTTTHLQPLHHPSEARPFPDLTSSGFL
Protocol: DRE-Luciferase Reporter Assay
AHR binds to Dioxin Responsive Elements (DRE) upstream of genes that it activates. One measure of AHR activity is activation of a reporter gene, such as luciferase, downstream of one or multiple DRE elements. Luciferase activity reflects activation and inhibition of AHR in the cells expressing this reporter.
Murine Hepa1-6 or Hepa-1c1c7 or other murine cell line with a DRE-luciferase reporter either stably or transiently transfected are plated in media in plates (96-well, 384-well or other plates) and incubated overnight at 37 C in a CO2 incubator. Likewise, human HepG2 or other human cell line with a DRE-luciferase reporter either stably or transiently transfected are plated in media in plates (96-well, 384-well or other plates) and incubated overnight at 37 C in a CO2 incubator.
(§1) The next day, an AHR agonist compound is added. Cells are incubated for 6, 16 or 24 hours or another time point and then lysed for determination of luciferase activity as a read-out of the AHR activation. Luciferase can be measured with a commercial kit such as the Promega Luciferase kit or any kit or reagents that provide the luciferin substrate for measuring luciferase activity. The level of luciferase with only activating ligand (e.g. such as TCDD, kynurenine, ITE (2-(1H-indole-3-ylcarbonyl)-4-thiazolecarboxylic methyl ester), VAF347, BNF (beta-naphthoflavone), ICZ (6-formylindolo(3,2-b) carbazole or other AHR ligands) added is the maximum signal while the luciferase with no ligand is the minimum signal. EC50s can be determined as the concentration which activates half of the maximum luciferase activity.

AHR [2] = target: T2, AHR (Mus musculus, UniProt P30561); experiment: P450 CYP1A1 Luciferase Assay, Hepa1.6 (agonist); type: cell-based, murine; conditions: Hepa1.6, Table 2
T2 sequence (P30561 1-848 F348L/P471L): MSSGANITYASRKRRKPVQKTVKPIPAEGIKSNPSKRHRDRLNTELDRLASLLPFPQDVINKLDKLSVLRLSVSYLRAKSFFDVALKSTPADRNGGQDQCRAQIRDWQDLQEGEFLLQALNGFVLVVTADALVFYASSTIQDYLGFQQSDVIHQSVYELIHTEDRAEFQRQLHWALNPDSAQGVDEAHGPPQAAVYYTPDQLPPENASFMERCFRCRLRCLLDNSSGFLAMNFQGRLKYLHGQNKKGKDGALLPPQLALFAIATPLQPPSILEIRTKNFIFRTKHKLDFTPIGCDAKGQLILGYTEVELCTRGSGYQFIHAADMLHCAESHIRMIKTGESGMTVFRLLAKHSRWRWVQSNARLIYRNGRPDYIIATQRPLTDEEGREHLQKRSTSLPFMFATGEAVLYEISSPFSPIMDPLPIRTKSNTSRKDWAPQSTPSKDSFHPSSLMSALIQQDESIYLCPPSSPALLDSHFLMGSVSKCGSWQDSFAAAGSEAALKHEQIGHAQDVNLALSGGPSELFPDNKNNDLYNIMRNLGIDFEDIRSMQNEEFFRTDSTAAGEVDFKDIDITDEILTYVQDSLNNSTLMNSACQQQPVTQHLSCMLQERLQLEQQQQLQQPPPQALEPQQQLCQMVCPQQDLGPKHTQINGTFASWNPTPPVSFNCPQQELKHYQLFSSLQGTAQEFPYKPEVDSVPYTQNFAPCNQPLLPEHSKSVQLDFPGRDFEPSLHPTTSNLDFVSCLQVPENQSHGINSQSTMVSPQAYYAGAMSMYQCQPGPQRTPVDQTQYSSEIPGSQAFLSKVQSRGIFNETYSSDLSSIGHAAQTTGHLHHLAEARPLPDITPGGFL
Protocol: P450 CYP1A1 Luciferase Assay
AHR binds to Dioxin Responsive Elements (DRE) upstream of genes that it activates. One measure of AHR activity is P450 CYP1A1 protein levels determined by measuring CYP1A1 enzyme activity using a luminogenic CYP1A1 luciferin-based substrate. Luciferase activity will reflect CYP1A1 activity resulting from activation of AHR in the cells.
Murine Hepa1-6 or Hepa-1c1c7 or other murine cell line, human HepG2 or other human cell line are plated in media (96-well, 384-well or other plates) and incubated overnight at 37 C in a CO2 incubator.
as §1, with “lysed and incubated with a CYP1A1 luciferase-based substrate (e.g. Luciferin-CEE)” for “lysed”, “3, 6, or 12 hours of another time point. Determination” for “determination”, “CYP1A1 enzyme activity” for “the AHR activation. Luciferase”, “P450 Glo CYP1A1 detection reagent” for “Luciferase kit”, “provide” for “provide the luciferin substrate”

SMILES | EC50 (AHR [1]) [nM] | EC50 (AHR [2]) [nM]
CN(C)c1cccc(-c2csc(Nc3cccc(C(F)(F)F)c3)n2)c1 [I-30] | 10 to 100 | 100 to 1000
C[N+](C)(CCO)CCOC(=O)N(c1cccc(C(F)(F)F)c1)c1nc(-c2cccc(Cl)c2)cs1 [I-31] | 10 to 100 | > 1000
FC(F)(F)c1cccc(-c2csc(Nc3cccc(Cl)c3)n2)c1 [I-32] | 10 to 100 | > 1000
O=C(O)c1cccc(-c2csc(Nc3cccc(C(F)(F)F)c3)n2)c1 [I-33] | 100 to 1000 | > 1000
C[N+](C)(C)CCC(=O)Nc1cccc(-c2csc(Nc3cccc(C(F)(F)F)c3)n2)c1 [I-34] | 100 to 1000 | > 1000
FC(F)(F)Oc1cccc(-c2csc(Nc3cccc(C(F)(F)F)c3)n2)c1 [I-36] | 100 to 1000 | > 1000
O=[N+]([O-])c1cccc(Nc2nc(-c3cccc(Cl)c3)cs2)c1 [I-38] | 100 to 1000 | > 1000
CN(CCOCCN(c1cccc(C(F)(F)F)c1)c1nc(-c2cccc(Cl)c2)cs1)CC(=O)O [I-39] | 100 to 1000 | > 1000
C[N+](C)(C)CCCC(=O)Nc1cccc(-c2csc(Nc3cccc(C(F)(F)F)c3)n2)c1 [I-40] | 100 to 1000 | > 1000
C[N+](C)(CCO)CCCC(=O)N(c1cccc(C(F)(F)F)c1)c1nc(-c2cccc(Cl)c2)cs1 [I-42] | 100 to 1000 | > 1000
O=C(c1cccc(-c2csc(Nc3cccc(C(F)(F)F)c3)n2)c1)N1CCOCC1 [I-43] | 100 to 1000 | > 1000
N=C(N)c1cccc(-c2csc(Nc3cccc(C(F)(F)F)c3)n2)c1 [I-44] | 100 to 1000 | > 1000
COc1ccc(-c2csc(Nc3cccc(C(F)(F)F)c3)n2)cc1 [I-46] | > 1000 | > 1000
C[N+](C)(C)CCNC(=O)Nc1cccc(-c2csc(Nc3cccc(C(F)(F)F)c3)n2)c1 [I-47] | > 1000 | > 1000
CN1CCN(C(=O)c2cccc(-c3csc(Nc4cccc(C(F)(F)F)c4)n3)c2)CC1 [I-48] | > 1000 | > 1000
O=[N+]([O-])c1ccccc1-c1csc(Nc2cccc(C(F)(F)F)c2)n1 [I-49] | > 1000 | > 1000
CN(C)C(=O)c1cccc(-c2csc(Nc3cccc(C(F)(F)F)c3)n2)c1 [I-50] | > 1000 | > 1000

Other lines, results leading:

EC50 (AHR [1]) [nM] | EC50 (AHR [2]) [nM] | SMILES
< 10 | > 1000 | FC(F)(F)c1cccc(Nc2nc(-c3cccc(Cl)c3)cs2)n1 [I-6]
< 10 | 100 to 1000 | O=[N+]([O-])c1cncc(-c2csc(Nc3cccc(C(F)(F)F)c3)n2)c1 [I-7]
< 10 | > 1000 | C[N+](C)(C)CCNC(=O)N(c1cccc(C(F)(F)F)c1)c1nc(-c2cccc(Cl)c2)cs1 [I-8]
< 10 | 10 to 100 | [O-][n+]1cccc(-c2csc(Nc3cccc(C(F)(F)F)c3)n2)c1 [I-9]
< 10 | 100 to 1000 | Cc1ccc(-c2csc(Nc3cccc(C(F)(F)F)c3)n2)cc1[N+](=O)[O-] [I-11]
< 10 | > 1000 | FC(F)(F)c1cccc(Nc2nc(-c3ccc(Cl)c(Cl)c3)cs2)c1 [I-12]
< 10 | > 1000 | FC(F)(F)Oc1cccc(Nc2nc(-c3cccc(Cl)c3)cs2)c1 [I-13]
< 10 | 10 to 100 | N#Cc1cccc(-c2csc(Nc3cccc(C(F)(F)F)c3)n2)c1 [I-14]
< 10 | > 1000 | Cc1c(-c2csc(Nc3cccc(C(F)(F)F)c3)n2)cccc1[N+](=O)[O-] [I-15]
< 10 | 100 to 1000 | C[N+](C)(CO)CCNC(=O)N(c1cccc(C(F)(F)F)c1)c1nc(-c2cccc(C#N)c2)cs1 [I-16]
< 10 | 100 to 1000 | NC(=O)c1cncc(-c2csc(Nc3cccc(C(F)(F)F)c3)n2)c1 [I-17]
< 10 | > 1000 | Oc1cccc(-c2csc(Nc3cccc(C(F)(F)F)c3)n2)c1 [I-18]
< 10 | > 1000 | FC(F)(F)c1cccc(Nc2nc(-c3ccccc3Cl)cs2)c1 [I-19]
< 10 | > 1000 | C[N+]1(CCNC(=O)N(c2cccc(C(F)(F)F)c2)c2nc(-c3cccc(Cl)c3)cs2)CCC(O)CC1 (centres unmarked) [I-20]
< 10 | > 1000 | FC(F)(F)c1ccc(Nc2nc(-c3cccc(Cl)c3)cs2)cc1 [I-21]
< 10 | 100 to 1000 | NC(=O)c1cccc(-c2csc(Nc3cccc(C(F)(F)F)c3)n2)c1 [I-22]
< 10 | > 1000 | FC(F)(F)c1cccc(Nc2nc(-c3ccc4cc[nH]c4c3)cs2)c1 [I-23]
10 to 100 | > 1000 | C[N+](C)(C)CCCNC(=O)N(c1cccc(C(F)(F)F)c1)c1nc(-c2cccc(Cl)c2)cs1 [I-24]
10 to 100 | > 1000 | N#Cc1cccc(Nc2nc(-c3cccc(Cl)c3)cs2)c1 [I-25]
10 to 100 | > 1000 | C[N+](C)(CCO)CCCNC(=O)N(c1cccc(C(F)(F)F)c1)c1nc(-c2cccc(Cl)c2)cs1 [I-26]
10 to 100 | > 1000 | Cc1sc(Nc2cccc(C(F)(F)F)c2)nc1-c1cccc(Cl)c1 [I-27]
10 to 100 | > 1000 | C[N+]1(CCNC(=O)N(c2cccc(C(F)(F)F)c2)c2nc(-c3cccc(Cl)c3)cs2)CCCCC1 [I-28]
10 to 100 | 100 to 1000 | C[N+](C)(C)CCCC(=O)N(c1cccc(C(F)(F)F)c1)c1nc(-c2cccc(Cl)c2)cs1 [I-29]
